# Like-named read-outs stand apart in the source and are kept apart here.
# Columns and labels:
# in vitro = conditions: human
# Procedure: (§1) Toxicity in human fetal lung fibroblast (MRC-5) cell line and primary mouse macrophages (PMM) was assessed using a previously reported assay in 96-well microtiter plates. Tamoxifen and miltefosine were included as reference drugs (Table 10).
# (§2) For MRC5SV2 or PMM cells, the assays were performed in 96-well microtiter plates, each well containing 10 µL of compound dilution and 190 µL of cell inoculum (3 × 10^4 cells/mL) as reported. Cell growth was compared to untreated controls (100% growth) and assay-media controls (0% growth). After three-day incubation, cell viability was assessed fluorometrically by adding resazurin [50 µL/well of a stock solution in phosphate buffer (50 µg/mL)], incubating for 4 h and measuring fluorescence (ex 550 nm, em 590 nm). The results are expressed as percentage reduction in cell growth as compared to untreated control wells. […] Tamoxifen was included as the reference drug.
# S. mansoni TGR [1] = molecular target: T1, S. mansoni TGR (Schistosoma mansoni, UniProt Q962Y6); assay: biochemical
# T1 construct: made in house; host or cells: E. coli
# T1 sequence (Q962Y6 1-598): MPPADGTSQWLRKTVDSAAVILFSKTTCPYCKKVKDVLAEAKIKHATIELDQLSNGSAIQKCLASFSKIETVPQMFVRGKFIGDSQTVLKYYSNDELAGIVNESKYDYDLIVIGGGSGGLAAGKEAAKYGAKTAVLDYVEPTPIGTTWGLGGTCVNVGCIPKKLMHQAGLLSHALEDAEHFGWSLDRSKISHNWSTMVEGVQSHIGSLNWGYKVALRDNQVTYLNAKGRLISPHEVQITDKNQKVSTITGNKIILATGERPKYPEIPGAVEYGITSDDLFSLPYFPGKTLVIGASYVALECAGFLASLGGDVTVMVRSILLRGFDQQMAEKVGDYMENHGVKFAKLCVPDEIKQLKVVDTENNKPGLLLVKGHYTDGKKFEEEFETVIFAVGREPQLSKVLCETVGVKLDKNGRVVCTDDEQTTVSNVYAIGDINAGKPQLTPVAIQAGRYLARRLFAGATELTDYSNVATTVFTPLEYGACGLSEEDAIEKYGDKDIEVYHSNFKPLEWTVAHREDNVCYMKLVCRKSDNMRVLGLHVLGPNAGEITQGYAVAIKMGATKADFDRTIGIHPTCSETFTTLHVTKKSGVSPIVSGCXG
# Procedure: Enzymes were prepared in E. coli as described. Assays were performed at 25 °C in 0.1 M potassium phosphate (pH 7.4), 10 mM EDTA using 100 μM NADPH and 3 mM dithiobis(2-nitrobenzoic acid) (DTNB). […] The increase in A412 during the first 3 min was recorded upon DTNB addition. The reaction was done in triplicate.
# [2] = system: L. infantum MHOM/MA (BE)/67 amastigotes; assay: Anti-leishmanial activity, L. infantum amastigotes in primary peritoneal mouse macrophages; type: cell-based, Leishmania infantum
# Procedure: Anti-leishmanial activity: L. infantum MHOM/MA (BE)/67 amastigotes were collected from the spleen of an infected donor hamster and used to infect primary peritoneal mouse macrophages grown in a 96-well plate. After 2 days outgrowth, 5 × 10^5 amastigotes were added to each well and incubated for 2 h at 37 °C. The compounds were subsequently added and the plates were further incubated for 5 days at 37 °C and 5% CO2. Parasite burdens (mean number of amastigotes/macrophage) were microscopically assessed on 500 cells after Giemsa staining and expressed as a percentage of the blank controls. Miltefosine was included as reference drug. The use of laboratory rodents was carried out in accordance to all mandatory guidelines (EU directives, including the Revised Directive 2010/63/EU on the Protection of Animals used for Scientific Purposes that came into force on 1 January 2013, and the declaration of Helsinki in its latest version) and was approved by the Ethical Committee of the University of Antwerp, Belgium [UA-ECD 2011–77 (17-02-2012 and UA-ECD 2015-90].
# [3] = Cytotoxicity on RAW 264.7 macrophages; type: cell-based, murine; conditions: mouse, 48 h incubation, read-out: Cytotoxicity on RAW 264.7 Macrophages CC50 (µM) ± SD
# Procedure: (§3) Cytotoxicity was evaluated on RAW 264.7 macrophages that were maintained at 37 °C with 5% CO2 in Dulbecco’s Modified Eagle’s Medium (DMEM, Invitrogen, Toulouse, France) supplemented with 100 U/mL penicillin-streptomycin (Invitrogen) and 10% heat-inactivated fetal bovine serum, as previously described. Briefly, cells were plated in 96-well microplates at a density of 2 × 10^4 cells per well. After incubation for 24 h at 37 °C in 5% CO2, the medium was removed from each well and 100 µL of medium containing 2-fold serial dilutions of compounds was added to each well. After 48 h incubation at 37 °C in 5% CO2, 10 µL of 450 µM resazurin was added to each well and further incubated in the dark for 4 h. Cell viability was determined as described above. The cytotoxicity of the compounds was expressed as CC50.
# RAW 264.7 macrophages = assay: Cytotoxicity on RAW 264.7 macrophages; type: cell-based, murine; conditions: 48 h incubation; 2880 min; read-out: Cytotoxicity on RAW 264.7 Macrophages CC50 (µM) ± SD
# Procedure: as §3
# [4] = Cytotoxicity on primary mouse macrophages (PMM); conditions: mouse
# Procedure: as §1, §2
# S. mansoni TGR [5] = molecular target: T1, S. mansoni TGR; design: method as in PMID 17579510
# S. mansoni TGR [6] = molecular target: T1, S. mansoni TGR; design: method as in PMID 17579510; remark: listed apart in the source
# S. mansoni TGR [7] = molecular target: T1, S. mansoni TGR; design: method as in PMID 17579510; remark: listed apart in the source
# [8] = 1–2 h after oral administration; cited from earlier work
# [9] = system: T. b. gambiense (ITMAP/1893); assay: Anti-trypanosomal activity, T. b. gambiense trypomastigotes (resazurin); type: cell-based, Trypanosoma brucei gambiense; conditions: Trypanosoma brucei, GAMBIENSE, 72 h, read-out: T. b. gambiense IC50 (µM) ± SD
# Procedure: (§4) Anti-trypanosomal activity: T. b. brucei Squib-427 strain (suramin-sensitive) and T. b. gambiense (ITMAP/1893) were cultured at 37 °C and 5% CO2 in HMI-9 medium supplemented with 10% FCS [90]. About 10^4 trypomastigotes/well were added to each well and parasite growth was assessed after 72 h at 37 °C by adding resazurin and reading at ex 550 nm, em 590 nm. Suramin was included as reference drug for T. b. brucei and pentamidine for T. b. gambiense.
# [10] = system: Acanthamoeba castellanii ATCC 30010; assay: Anti-acanthamoebal activity on A. castellanii trophozoites (resazurin); type: cell-based; conditions: ATCC30010, 72 h, read-out: Acanthamoeba castellanii ATCC 30010 IC50 (µM) ± SD
# Procedure: (§5) In vitro anti-leishmanial evaluation was perfomed on both axenic and intramacrophage L. donovani amastigotes as previously described. […] Briefly, compounds were distributed in 96-well plates using 2-fold dilutions in 100 µL PYG medium. A. castellanii trophozoites were added to each well at 5 × 10^4 amoeba/mL in 200 µL final volume. L. donovani axenic amastigotes were added to each well at 10^6 parasites/mL in 200 µL final volume. After 72 h incubation at 27 °C, 20 µL of 1 mM resazurin was added to each well and further incubated at 27 °C for 8 h for A. castellanii and for 24 h for L. donovani axenic amastigotes. In living cells, resazurin is reduced in resorufin. This conversion is monitored by measuring the absorbance at specific wavelengths of resorufin (570 nm) and resazurin (600 nm) using a microplate reader (Labsystems Multiskan MS, McLean, VA, USA). In this assay, the activity was expressed in IC50. Miltefosine and pentamidine were used as reference drugs. All experiments were performed in three independent experiments.
# [11] = system: T. b. brucei Squib-427 strain; assay: Anti-trypanosomal activity, T. b. brucei trypomastigotes (resazurin); type: cell-based, Trypanosoma brucei brucei; conditions: Trypanosoma brucei, 72 h
# Procedure: as §4
# [12] = system: Leishmania donovani LV9 axenic amastigotes; assay: L. donovani LV9 axenic amastigotes (resazurin); type: cell-based; conditions: Leishmania donovani; read-out: Leishmania donovani LV9 Axenic Amastigotes IC50 (µM) ± SD
# Procedure: as §5
# [13] = system: Leishmania donovani LV9 intramacrophage amastigotes; assay: L. donovani LV9 intramacrophage amastigotes; type: cell-based; conditions: Leishmania donovani; read-out: Leishmania Donovani LV9 Intramacrophage Amastigotes IC50 (µm) ± SD
# Procedure: as §5
# Human TrxR [14] = conditions: 20 µM substrate, after 10 min enzyme-NADPH-gold complex preincubation, read-out: IC50 Human TrxR, substrate hTrxC72S, cited from earlier work
# Human TrxR [15] = conditions: 3 mM DTNB, read-out: IC50 Human TrxR, substrate DTNB, cited from earlier work
# Human GR = conditions: read-out: IC50 Human GR, substrate GSSG, cited from earlier work
# [16] = molecular target: human thioredoxin reductase (TrxR); design: method as in PMID 9685351; conditions: cited from earlier work
# T. cruzi Tulahuen CL2 = assay: Anti-Chagas activity, T. cruzi on MRC-5 cells; type: cell-based; conditions: Trypanosoma cruzi, TULAHUEN, MRC5, 168 h; amastigotes, MRC-5 host cells, 7 days; read-out: Trypanosoma cruzi IC50 (µM) ± SD
# Procedure: Anti-Chagas activity: T. cruzi Tulahuen CL2 (benznidazole-sensitive, LacZ-reporter strain) was maintained on MRC-5 cells in minimal essential medium (MEM) supplemented with […], 16.5 mM sodium hydrogen carbonate and 5% FCS. In the assay, 4 × 10^3 MRC-5 cells and 4 × 10^4 parasites were added to each well. After incubation at 37 °C for 7 days, parasite growth was assessed by adding the substrate chlorophenol red -D-galactopyranoside. The color reaction was read at 540 nm after 4 h and absorbance values were expressed as a percentage of the blank controls. Benznidazole was included as reference drug.
smiles,measurement,setting,value
CC/C(=C(\c1ccccc1)c1ccc(OCCN(C)C)cc1)c1ccccc1 [Tamoxifen],CC50 at 3 days,in vitro,10600 nM
CC[P](CC)(CC)=[Au][S][C@@H]1O[C@H](COC(C)=O)[C@@H](OC(C)=O)[C@H](OC(C)=O)[C@H]1OC(C)=O [Auranofin],IC50,S. mansoni TGR [1],1.1 nM
same,IC50 versus CC50 in the assays with mouse macrophages,"[2]; L. infantum amastigotes, equal IC50 and CC50 values",non-specific activity
same,CC50 at 48 h,[3]; raw 264.7 macrophages,~4 µM
same,CC50,RAW 264.7 macrophages,4.43 ± 0.08 µM
same,CC50 at 72 h,in vitro; mrc-5 cells,520 nM
same,CC50 at 72 h,[4]; primary macrophages,2000 nM
same,IC50,"S. mansoni TGR [5]; read-out: IC50 S. mansoni TGR, substrate DTNB; 20 nM enzyme, 3 mM DTNB; after 15 min preincubation; cited from earlier work",7 nM
same,IC50,"S. mansoni TGR [6]; read-out: IC50 S. mansoni TGR, substrate GSSG; 20 nM enzyme, 100 µM GSSG; after 15 min preincubation; cited from earlier work",9 nM
same,IC50,"S. mansoni TGR [7]; read-out: IC50 S. mansoni TGR, substrate HED + GSSG; 20 nM enzyme, 8 mM substrate; after 15 min preincubation; cited from earlier work",6 nM
same,drug remaining in the plasma,[8],15–25%
same,plasma concentration,[8],10000 ng/mL
N=C(N)c1ccc(OCCCCCOc2ccc(C(=N)N)cc2)cc1 [Pentamidine],IC50,[9],0.0011 ± 0.0001 µM
same,IC50,[10],1.39 ± 0.37 µM
same,CC50 at 48 h,[3]; RAW 264.7 macrophages,> 25 µM
CCCCCCCCCCCCCCCCOP(=O)([O-])OCC[N+](C)(C)C [Miltefosine],IC50,[11],11400 nM
same,IC50,"[2]; Leishmania infantum, Macrophage, 120 h, amastigotes in primary peritoneal mouse macrophages, 5 days, read-out: Leishmania infantum IC50 (µM) ± SD",11.3 ± 2.88 µM
same,IC50,[12],1.28 ± 0.12 µM
same,IC50,[13],4490 ± 1080 nM
same,IC50,[10],9.21 ± 2.04 µM
same,CC50 at 48 h,[3]; RAW 264.7 macrophages,> 25 µM
same,CC50 at 3 days,[4],20000 nM
"[Cl][Au][PH]1(c2ccccc2)C(c2ccccn2)=CC=C1c1ccccn1 [GoPI, {1-phenyl-2,5-di(2-pyridyl)phosphole}AuCl]",IC50,Human TrxR [14]; 24 nM enzyme,6.9 nM
same,IC50,Human TrxR [14]; 30 nM enzyme,7 nM
same,IC50,"Human TrxR [15]; 3.7 nM enzyme, after 10 min preincubation",1 nM
same,IC50,"Human TrxR [15]; […] enzyme, after 10 min preincubation",0.8 nM
same,IC50,"Human GR; 1.4-[…] enzyme, 100 µM GSSG, after 10 min preincubation",2 nM
same,IC50,"Human GR; […] enzyme, 100 µM GSSG, after 10 min preincubation",1 nM
OC[C@H]1O[C@H]([S-])[C@H](O)[C@@H](O)[C@@H]1O.[Au+] [Aurothioglucose],IC50,"Human TrxR [15]; 2 nM enzyme, steady state kinetic studies",65 nM
same,IC50,"Human GR; 1.5 nM enzyme, 1 mM GSSG, steady state kinetic studies",> 100000 nM
same,IC50,"S. mansoni TGR [5]; 20 nM enzyme, 3 mM DTNB; after 15 min preincubation; read-out: IC50 S. mansoni TGR, substrate DTNB; cited from earlier work",70 nM
same,IC50,"S. mansoni TGR [6]; 20 nM enzyme, 100 µM GSSG; after 15 min preincubation; read-out: IC50 S. mansoni TGR, substrate GSSG; cited from earlier work",3000 nM
same,IC50,"S. mansoni TGR [7]; 20 nM enzyme, 8 mM substrate; after 15 min preincubation; read-out: IC50 S. mansoni TGR, substrate HED + GSSG; cited from earlier work",400 nM
same,Ki,[16],4 nM
"O=C(Cn1ccnc1[N+](=O)[O-])NCc1ccccc1 [Benznidazole, reference compound]",IC50,T. cruzi Tulahuen CL2,2.89 ± 0.94 µM
Cc1ccc(C(=O)Nc2ccc(S(=O)(=O)O)c3cc(S(=O)(=O)O)cc(S(=O)(=O)O)c23)cc1NC(=O)c1cccc(NC(=O)Nc2cccc(C(=O)Nc3cc(C(=O)Nc4ccc(S(=O)(=O)O)c5cc(S(=O)(=O)O)cc(S(=O)(=O)O)c45)ccc3C)c2)c1 [Suramin],IC50,[11],30 nM
